The record followed here is PubChem BioAssay (NCI).

Among the test systems are COLO 205 colon; DU-145 prostate; IGROV1 ovarian; MCF7 breast; MOLT-4 leukemia; SK-MEL-5 melanoma; SK-OV-3 ovarian; SN12C renal; TK-10 renal; UACC-62 melanoma.
Test in all cases: inhibition of tumour cell growth, NCI panel, 48 h

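Protocol summary: plate cells (96-well), add compound at 5 concentrations, incubate 48 h, interpolate endpoints linearly. GI50 is the concentration that inhibits growth by half. The concentration for full growth arrest is given as TGI.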 Where only a bound is given, the exact number is not on record here.

For the compound `COc1ccc2[nH]c(C(=O)N3CC(CCl)c4c3cc(N)c3ccccc43)cc2c1` (stereo not given), the TGI with COLO 205 colon was below 0.0167 µM; in the experiment on DU-145 prostate it was below 0.01 µM; in the experiment with IGROV1 ovarian, 18.2 µM; in the experiment on MCF7 breast it was 0.0353 µM; in the experiment on MOLT-4 leukemia, below 0.0153 µM; with SK-MEL-5 melanoma, below 0.0112 µM. Also, the TGI in the experiment with SK-OV-3 ovarian was 0.964 µM; in the experiment on SN12C renal, below 0.0183 µM; in the experiment with TK-10 renal it was 11.4 µM; with UACC-62 melanoma, below 0.0116 µM.
Consider `COc1cc(CCN(C)C)cc(OC)c1OC`, for which the TGI with COLO 205 colon, with DU-145 prostate, with IGROV1 ovarian, with MCF7 breast, in the experiment on MOLT-4 leukemia and in the experiment with SK-MEL-5 melanoma was above 100 µM throughout. The TGI with SK-OV-3 ovarian, in the experiment on SN12C renal, with TK-10 renal and in the experiment with UACC-62 melanoma was above 100 µM each time.
On to `Clc1ccc(C2CC(c3cccc(Nc4ccncc4)c3)=NN2c2cc(Cl)cc(Cl)c2)cc1` (stereo not given), for which the GI50 is 2.14 µM with COLO 205 colon; 1.85 µM in the experiment on DU-145 prostate; 1.71 µM in the experiment with IGROV1 ovarian; 2.05 µM in the experiment with MCF7 breast; 2.17 µM in the experiment on MOLT-4 leukemia; 1.83 µM with SK-MEL-5 melanoma. The GI50 in the experiment with SK-OV-3 ovarian is 1.89 µM; in the experiment on SN12C renal, 1.73 µM; in the experiment on TK-10 renal, 1.93 µM; in the experiment on UACC-62 melanoma it was 1.77 µM. Further, the TGI was determined as 4.62 µM in the experiment with COLO 205 colon; 3.39 µM with DU-145 prostate; 3.32 µM in the experiment with IGROV1 ovarian; 4.73 µM in the experiment on MCF7 breast; 5.01 µM in the experiment with MOLT-4 leukemia; 3.38 µM in the experiment on SK-MEL-5 melanoma. The TGI with SK-OV-3 ovarian turned out to be 3.83 µM; with SN12C renal, 3.29 µM; with TK-10 renal, 3.7 µM; in the experiment on UACC-62 melanoma it was 3.29 µM.
